Measured values: article PMC10709135 (iScience, 2023)

Biological target: T1, fl-KcsA (full-length KcsA) (Streptomyces lividans, UniProt P0A334)
T1 sequence (P0A334 1-160): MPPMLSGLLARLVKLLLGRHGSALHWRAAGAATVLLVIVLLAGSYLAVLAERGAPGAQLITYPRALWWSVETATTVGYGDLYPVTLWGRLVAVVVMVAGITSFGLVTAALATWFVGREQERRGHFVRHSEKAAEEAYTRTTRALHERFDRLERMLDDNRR
Assay: SPR, KcsA immobilised on SAM chip
Assay type: binding
Conditions: specific blocker; type of constant not given

## CCCC[N+](CCCC)(CCCC)CCCC [TBA]
  binding affinity: The binding affinity of TBA to KcsA deduced from the present SPR study
